# Patent publication US7910576B2, “Pyrrole derivatives as P2Y12 antagonists” (Sanofi-Aventis, priority 2007, dated 2011)
# Target: T1, human P2Y12 receptor (Homo sapiens, UniProt Q9H244)
# T1 construct: expressed in transfected cells; host or cells: Chinese Hamster Ovary (CHO) cells, membrane preparation
# Experiment: Human P2Y12 recombinant cell membrane binding assay
# Details: competition against 33P 2MeS-ADP; membranes of CHO cells with recombinant human P2Y12 receptor; read-out: inhibition MeSADP binding P2Y12, IC 50
# Method: Human P2Y12 Recombinant Cell Membrane Binding Assay
# The ability of a test compound to bind to the P2Y12 receptor was evaluated in a recombinant cell membrane binding assay. In this competitive binding assay, the test compound competed against a radiolabeled agonist for binding to the P2Y12 receptor, expressed on the cell membrane. Inhibition of binding of the labeled material was measured and correlated to the amount and potency of the test compound. This binding assay is a modification of the procedure described by Takasaki, J. et. al, Mol. Pharmacol., 2001, Vol. 60, pg. 432.
# As source of P2Y12, a membrane preparation was prepared from Chinese Hamster Ovary (CHO) cells with recombinant expression of the human P2Y12 receptor according to standard procedures.
# To a 96-well microtiterplate the following were added: a) 24 μl of assay buffer (10 mM HEPES, 138 mM NaCl, […] KCl, 12 mM NaHCO3, 1 mM EDTA-Na, 0.1% BSA, pH 7.4) b) 1 μL compound in DMSO c) 50 μL P2Y12 CHO membrane (20 μg/ml) and after 15 min at RT d) 25 μL of 1.61 nM ^33P 2MeS— ADP (Perkin Elmer NEN custom synthesis, specific activity ˜2100 Ci/mmol) made in assay buffer.
# After 20 min incubation at RT samples were transferred to 96-well microtiter filterplates (Millipore HTS GF/B), pre-wetted for 20 min with 300 μL of stop buffer (10 mM HEPES, 138 mM NaCl pH 7.4) and then filtered through completely with a Millipore plate vacuum. Next, wells were washed four times with 400 μl/well of stop buffer on a plate vacuum. The plate was disassembled and allowed to air dry overnight with the filter side up over night. The filter plates were snapped into adapter plates and 0.1 mL of Microscint 20 Scintillation Fluid (Perkin Elmer #6013621) was added to each well. The top of the filterplate was sealed with plastic plate covers. The sealed filterplate were incubated 2 hours at room temperature. A Microbeta Scintillation Counter was used to measure counts. The binding of compound is expressed as a % inhibition of specific binding, defined by subtraction of the background with 1 mM ADP. Compounds were diluted as 10 mM DMSO stocks and tested in a four-point, five-fold dilution series run in triplicate beginning at 10 μM, final concentration. Data were analyzed using a four-parameter curve fit with a fixed minimum and maximum experimentally defined as the average positive and negative controls on each plate.
# T1 sequence (Q9H244 whole entry): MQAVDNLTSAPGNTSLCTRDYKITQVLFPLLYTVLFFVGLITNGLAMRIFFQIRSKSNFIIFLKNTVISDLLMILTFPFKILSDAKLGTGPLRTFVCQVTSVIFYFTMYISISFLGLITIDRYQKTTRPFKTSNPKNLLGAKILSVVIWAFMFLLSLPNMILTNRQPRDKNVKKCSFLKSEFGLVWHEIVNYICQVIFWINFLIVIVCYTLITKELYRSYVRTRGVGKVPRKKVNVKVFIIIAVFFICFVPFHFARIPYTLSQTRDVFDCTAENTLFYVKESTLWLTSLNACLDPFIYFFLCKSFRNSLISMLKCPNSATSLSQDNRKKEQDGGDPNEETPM
row,SMILES,IC50
1,"Cc1[nH]c(-c2ccccc2)cc1C(=O)C(=O)N1CCN(c2cccc(C(F)(F)F)c2)CC1 [Example 1, 1-(2-Methyl-5-phenyl-1H-pyrrol-3-yl)-2-[4-(3-trifluoromethyl-phenyl)-piperazin-1-yl]-ethane-1,2-dione]",500 nM
2,"Cc1[nH]c(-c2ccccc2)cc1C(=O)C(=O)N1CCN(c2ccc(Cl)c(C(F)(F)F)c2)CC1 [Example 10, 1-[4-(4-Chloro-3-trifluoromethyl-phenyl)-piperazin-1-yl]-2-(2-methyl-5-phenyl-1H-pyrrol-3-yl)-ethane-1,2-dione]",700 nM
3,"CCOC(=O)c1cccc(N2CCN(C(=O)C(=O)c3cc(-c4ccccc4)[nH]c3C)CC2)c1 [Example 33, 3-{4-[2-(2-Methyl-5-phenyl-1H-pyrrol-3-yl)-2-oxo-acetyl]-piperazin-1-yl}-benzoic acid ethyl ester]",170 nM
4,"Cc1[nH]c(-c2ccccc2)cc1C(=O)C(=O)N1CCC(C(=O)c2ccc(Br)cc2)CC1 [Example 51, 1-[4-(4-Bromo-benzoyl)-piperidin-1-yl]-2-(2-methyl-5-phenyl-1H-pyrrol-3-yl)-ethane-1,2-dione]",710 nM
5,"Cc1[nH]c(-c2ccccc2)cc1C(=O)C(=O)N1CCC(C(=O)c2cccc(Cl)c2)CC1 [Example 52, 1-[4-(3-Chloro-benzoyl)-piperidin-1-yl]-2-(2-methyl-5-phenyl-1H-pyrrol-3-yl)-ethane-1,2-dione]",520 nM
6,"Cc1[nH]c(-c2ccccc2)c(/C=C/C(=O)O)c1C(=O)C(=O)N1CCN(c2cccc(C(F)(F)F)c2)CC1 [Example 71, (E)-3-(5-Methyl-4-{2-oxo-2-[4-(3-trifluoromethyl-phenyl)-piperazin-1-yl]-acetyl}-2-phenyl-1H-pyrrol-3-yl)-acrylic acid]",30 nM
